The values that follow come from US9187490B2, “Dimeric IAP inhibitors” (TetraLogic Pharmaceuticals Corporation, priority 2005, dated 2015).

In one series the target is T1, XIAP-BIR3 (Homo sapiens, UniProt P98170).
T1 construct: 40 nM of XIAP-BIR3 for 15 min at RT
As to the kind of experiment: XIAP BIR-3 fluorescence polarization binding assay. The settings on record: read-out: KD Range. The method, then: Following incubation, the polarization values (mP) were measured on a Victor^2V using a 485 nm excitation filter and a 520 nm emission filter. IC50 values were determined from the plot using nonlinear least-squares analysis using GraphPad Prism.
Background: Polarisation of emitted light reports the rotation of a fluorescent probe.

For another series, the system named is MDA MB-231 cells. As to the kind of experiment: Apoptosis induction, Annexin V/Propidium Iodide staining. The format is cell-based. The method, then:
To show the ability of Smac mimetics to induce apoptosis, Annexin V-fluorescein isothiocyanate staining was performed. […] Cells were then pelleted and resuspended in assay buffer (supplied by manufacturer). Annexin V and propidium iodide were added to the cell preparations and incubated for 1 hour in the dark at room temperature. Following the incubation additional buffer (200 μl) was then added to each tube, and the samples were analyzed immediately by flow cytometry. In the presence of Smac mimetics apoptosis was strongly promoted, as assessed by annexin/PI staining and analyzed by flow cytometry. The amplification in the number of apoptotic cells (Annexin V positive/propidium iodide negative—lower right quadrant) by IAP antagonists as compared to control was dose dependent and due to the induction of apoptosis and not via increasing the proportion of necrotic cells.

A further series relates to OVCAR-3 cells. As to the kind of experiment: Cytotoxicity synergy matrix (MacSynergy II) with paclitaxel, cisplatin, carboplatin. The format is cell-based. The method, then: To further assess potential drug-drug interactions a matrix of the permutations of two-fold serial dilutions of each drug and a Snac mimetic were tested as well as the activity of each compound alone using a program called MacSynergy II (Prichard, M. N., K. R. Aseltine, and C. Shipman, Jr. 1993. MacSynergy II. User's manual. Univ. of Michigan, Ann Arbor). The synergy with paclitaxel and the Smac peptidomimetic Entry 122 in OVCAR3 cells was tested. The highest amount of synergy detected is 10-20% which indicates greater cell death than would be expected by adding together the cytotoxicity of either compound alone.
Paclitaxel the dosage ranged from about 0.0 to about 500.0 nM. For Entry 122, the dosage range was about 125.0 to about 8000.0 nM. The total synergistic volume was about 170.
The synergy with cisplatin and the Smac peptidomimetics in OVCAR-3 cells was tested The highest amount of synergy is 40-50% more cell death than would be expected by adding together the cytotoxicity of each compound alone. […] For cisplatin the dosage range was about 0.0 to about 166,500.0 nM. For Entry 122, the dosage range was about 500.0 to about 32,000.0 nM. The total synergistic volume was about 434. Similar tests were performed with the combination of carboplatin and Smac mimetics. Synergy between a Smac peptidomimetic, Entry 122, and carboplatin.

The nature of series [1]: Half life after single intravenous dose in rat. The settings on record: in vivo, single IV dose 1 mg/kg, FIG. 2, read-out: terminal elimination half life (converted). The method, then:
The IV dose for each Smac mimetic was 1 mg/kg.

The mark [2] stands for this setting: 5 nM AbuRPF-K(5-Fam)-NH2, 40 nM XIAP-BIR3, 15 min RT, pH 7.5.

Like-named read-outs stand apart in the source and are kept apart here.

T1 sequence (P98170 241-356 limits assumed): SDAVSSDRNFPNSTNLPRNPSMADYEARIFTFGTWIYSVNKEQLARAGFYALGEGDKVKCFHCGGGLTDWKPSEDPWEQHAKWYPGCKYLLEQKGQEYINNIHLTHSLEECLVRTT

The term Kd denotes the concentration at which binding is half-saturated. On to `CN[C@@H](C)C(=O)N[C@H](C(=O)N1CCC[C@H]1Cc1c(-c2[nH]c3cc(F)ccc3c2C[C@@H]2CCCN2C(=O)[C@@H](NC(=O)[C@H](C)NC)C(C)(C)C)[nH]c2cc(F)ccc12)C(C)(C)C` [Entry 84], for which, at XIAP-BIR3 (Example 4 series), the dissociation constant Kd was < 100 nM.
Same read-out and setting: under `CN[C@@H](C)C(=O)N[C@H](C(=O)N1CCC[C@H]1Cc1c(-c2[nH]c3cc(F)ccc3c2C[C@@H]2CCCN2C(=O)[C@@H](NC(=O)[C@H](C)NC)C2CCCCC2)[nH]c2cc(F)ccc12)C1CCCCC1` [Entry 85] stands < 100 nM.
In the case of `CNC(C)C(=O)NC(C(=O)N1CC(O)CC1Cc1c(-c2[nH]c3cc(F)ccc3c2CC2CC(O)CN2C(=O)C(NC(=O)C(C)NC)C(C)O)[nH]c2cc(F)ccc12)C(C)O` (stereo not drawn) [Entry 86], the equilibrium dissociation constant (Kd) on XIAP-BIR3 (Example 4 series) is < 100 nM.
As to `CN[C@@H](C)C(=O)N[C@H](C(=O)N1C[C@@H](O)C[C@H]1Cc1c(-c2[nH]c3cc(F)ccc3c2C[C@@H]2C[C@H](O)CN2C(=O)[C@@H](NC(=O)[C@H](C)NC)C(C)C)[nH]c2cc(F)ccc12)C(C)C` [Entry 87], the Kd at XIAP-BIR3 (Example 4 series) is < 100 nM.
In the case of `CNC(C)C(=O)NC(C(=O)N1CC(O)CC1Cc1c(-c2[nH]c3cc(F)ccc3c2CC2CC(O)CN2C(=O)C(NC(=O)C(C)NC)C(C)OC)[nH]c2cc(F)ccc12)C(C)OC` (stereo not drawn) [Entry 88], the Kd on XIAP-BIR3 (Example 4 series) was < 100 nM.
Still for that read-out and setting: in the case of `CNC(C)C(=O)NC(C(=O)N1CC(O)CC1Cc1c(-c2[nH]c3cc(F)ccc3c2CC2CC(O)CN2C(=O)C(NC(=O)C(C)NC)C(C)OC(C)(C)C)[nH]c2cc(F)ccc12)C(C)OC(C)(C)C` (stereo not drawn) [Entry 89] it was 100 to 1000 nM.
Consider `CNC(C)C(=O)NC(C(=O)N1CC(O)CC1Cc1c(-c2[nH]c3cc(F)ccc3c2CC2CC(O)CN2C(=O)C(NC(=O)C(C)NC)C(C)O)[nH]c2cc(F)ccc12)C(C)O` (stereo not drawn) [Entry 90], for which the Kd at XIAP-BIR3 (Example 4 series) was < 100 nM.
Turning to `CN[C@H](C)C(=O)N[C@H](C(=O)N1CCC[C@H]1Cc1c(-c2[nH]c3cc(F)ccc3c2C[C@@H]2CCCN2C(=O)[C@@H](NC(=O)[C@@H](C)NC)C(C)C)[nH]c2cc(F)ccc12)C(C)C` [Entry 91], on XIAP-BIR3 (Example 4 series), the Kd was 100 to 1000 nM.
Regarding `CNC(C)C(=O)NC1CC=CCC(NC(=O)C(C)NC)C(=O)N2CCCC2Cc2c3n(c4cc(F)ccc24)CCn2c-3c(c3ccc(F)cc32)CC2CCCN2C1=O` (stereo not drawn) [Entry 95], at XIAP-BIR3 (setting [2]), the Kd was < 100 nM.
On the same count and under the same terms, under `CN[C@@H](C)C(=O)NC1CCCC[C@H](NC(=O)[C@H](C)NC)C(=O)N2CCC[C@H]2Cc2c3n(c4ccc(F)cc24)CCn2c-3c(c3cc(F)ccc32)C[C@@H]2CCCN2C1=O` (stereo partly drawn) [Entry 97] stands < 100 nM.
With `CN[C@@H](C)C(=O)N[C@H](C(=O)N1CCC[C@H]1Cc1c(-c2[nH]c3ccccc3c2C[C@@H]2CCCN2C(=O)[C@@H](NC(=O)[C@H](C)NC)[C@@H](C)O)[nH]c2ccccc12)[C@@H](C)O` [Entry 105], on XIAP-BIR3 (Example 7 series), the Kd is < 100 nM.
Still for that read-out and setting: in the case of `CN[C@@H](C)C(=O)N[C@H](C(=O)N1C[C@@H](O)C[C@H]1Cc1c(-c2[nH]c3cc(F)ccc3c2C[C@@H]2C[C@H](O)CN2C(=O)[C@@H](NC(=O)[C@H](C)NC)[C@H](C)OC(C)(C)C)[nH]c2cc(F)ccc12)[C@H](C)OC(C)(C)C` [Entry 114] it was < 100 nM.
On to `CN[C@@H](C)C(=O)N[C@H](C(=O)N1CCC[C@H]1Cc1cn(CC#CC#CCn2cc(C[C@@H]3CCCN3C(=O)[C@@H](NC(=O)[C@H](C)NC)C(C)(C)C)c3ccccc32)c2ccccc12)C(C)(C)C` [Entry 119], for which the Kd on XIAP-BIR3 (setting [2]) was < 100 nM.
On the same count and under the same terms, in the case of `CN[C@@H](C)C(=O)N[C@H](C(=O)N1CCC[C@H]1Cc1cn(CC#CC#CCn2cc(C[C@@H]3CCCN3C(=O)[C@@H](NC(=O)[C@H](C)NC)C3CCCCC3)c3ccccc32)c2ccccc12)C1CCCCC1` [Entry 120] it was < 100 nM.
For `CN[C@@H](C)C(=O)N[C@H](C(=O)N1CCC[C@H]1Cc1cn(CC#CC#CCn2cc(C[C@@H]3CCCN3C(=O)[C@@H](NC(=O)[C@H](C)NC)C(C)C)c3ccccc32)c2ccccc12)C(C)C` [Entry 121], in the series with MDA MB-231 cells (MDA MB-231, after 4 hours), the “apoptosis induced, agent alone” value was “failed to induce significant apoptosis” and the “increase in apoptotic activity, combination of TRAIL with compound” value is given as 4 fold. In addition, the “apoptosis, compound alone” value with MDA MB-231 cells (MDA MB-231, without TRAIL) is listed as “approximately 10 % of cell total”. Also, the dissociation constant (Kd) at XIAP-BIR3 (setting [2]) is < 100 nM.
What is called half-life is how long it takes for the measured level to halve. On to `CN[C@@H](C)C(=O)N[C@H](C(=O)N1CCC[C@H]1Cc1cn(CCOCCn2cc(C[C@@H]3CCCN3C(=O)[C@@H](NC(=O)[C@H](C)NC)C3CCCCC3)c3ccccc32)c2ccccc12)C1CCCCC1` [Entry 122], for which the total synergistic volume entry in the series on OVCAR-3 cells (OVCAR3, paclitaxel 0.0-500.0 nM, compound 125.0-8000.0 nM) was “about 170”; in the series with OVCAR-3 cells (OVCAR-3, cisplatin 0.0-166,500.0 nM, compound 500.0-32,000.0 nM), “about 434”. Further, the “highest amount of synergy detected” value in the series with OVCAR-3 cells (OVCAR3, with paclitaxel) was 10-20%. Besides, the “synergy with carboplatin” value in the series with OVCAR-3 cells (OVCAR-3, with carboplatin) is given as “Synergy”. In the series on OVCAR-3 cells (OVCAR-3, with cisplatin), the “highest amount of synergy, more cell death than expected” value is reported as 40-50%. For the same molecule, the half-life in series [1] was ≤ 6 h. Further, the Kd on XIAP-BIR3 (Example 9 series) is < 100 nM.
As to `CN[C@@H](C)C(=O)N[C@H](C(=O)N1CCC[C@H]1Cc1cn(CCOCCn2cc(C[C@@H]3CCCN3C(=O)[C@@H](NC(=O)[C@H](C)NC)C3CCCCC3)c3ccc(F)cc32)c2cc(F)ccc12)C1CCCCC1` [Entry 123], the half-life in series [1] is ≤ 6 h. In addition, the Kd at XIAP-BIR3 (Example 9 series) is < 100 nM.
Take `CN[C@@H](C)C(=O)N[C@H](C(=O)N1CCC[C@H]1Cc1cn(CCOCCn2cc(C[C@@H]3CCCN3C(=O)[C@@H](NC(=O)[C@H](C)NC)[C@@H](C)O)c3ccc(F)cc32)c2cc(F)ccc12)[C@@H](C)O` [Entry 124]: at XIAP-BIR3 (Example 9 series), the Kd is < 100 nM.
For `CC[C@H](NC)C(=O)N[C@H](C(=O)N1CCC[C@H]1Cc1cn(CCOCCn2cc(C[C@@H]3CCCN3C(=O)[C@@H](NC(=O)[C@H](CC)NC)[C@@H](C)O)c3cc(F)ccc32)c2ccc(F)cc12)[C@@H](C)O` [Entry 125], the Kd at XIAP-BIR3 (Example 9 series) lay within 100 to 1000 nM.
Same read-out and setting: in the case of `CN[C@@H](C)C(=O)N[C@H](C(=O)N1CCC[C@H]1Cc1cn(CCOCCn2cc(C[C@@H]3CCCN3C(=O)[C@@H](NC(=O)[C@H](C)NC)C3CCCCC3)c3cc(F)ccc32)c2ccc(F)cc12)C1CCCCC1` [Entry 126] it was < 100 nM; in that of `CN[C@@H](C)C(=O)N[C@H](C(=O)N1CCC[C@H]1Cc1c(C)n(CCOCCn2c(C)c(C[C@@H]3CCCN3C(=O)[C@@H](NC(=O)[C@H](C)NC)C3CCCCC3)c3cc(F)ccc32)c2ccc(F)cc12)C1CCCCC1` [Entry 127], < 100 nM; in that of `CN[C@@H](C)C(=O)N[C@H](C(=O)N1CCC[C@H]1Cc1cn(CCOCCn2cc(C[C@@H]3CCCN3C(=O)[C@@H](NC(=O)[C@H](C)N)C3CCCCC3)c3ccccc32)c2ccccc12)C1CCCCC1` [Entry 143], < 100 nM.

B1: TRAIL: tumor necrosis factor-related apoptosis-inducing ligand (TRAIL) (protein, UniProt P50591 1-281, looked up)
Tumor necrosis factor ligand …: MAMMEVQGGPSLGQTCVLIVIFTVLLQSLCVAVTYVYFTNELKQMQDKYSKSGIACFLKEDDSYWDPNDEESMNSPCWQVKWQLRQLVRKMILRTSEETISTVQEKQQNISPLVRERGPQRVAAHITGTRGRSNTLSSPNSKNEKALGRKINSWESSRSGHSFLSNLHLRNGELVIHEKGFYYIYSQTYFRFQEEIKENTKNDKQMVQYIYKYTSYPDPILLMKSARNSCWSKDAEYGLYSIYQGGIFELKENDRIFVSVTNEHLIDMDHEASFFGAFLVG
Regarding B1, the “apoptosis induced, agent alone” value in the series on MDA MB-231 cells (MDA MB-231, after 4 hours) is listed as “little, if any”.
